The values that follow are results of earlier work, collected in US20120191185A1, “OPHTHALMIC INTRAOCULAR LENS FOR PROMOTING HEALING” (priority 2011, published 2012).

The test system of one data set is corneal anterior stroma. The settings on record: mammals, clinical setting.
The conditions of data set [1]: primates.
The test system of data set [2] is posterior capsule opacification. The settings on record: rabbits.
For data set [3] the following is noted: subconjunctival administration.

As for platelet derived growth factor, the “corneal anterior stroma healing” value in the data set on corneal anterior stroma is “accelerate corneal anterior stroma healing”. Turning to `COc1cc2c(c(OC)c1OC)-c1ccc(OC)c(=O)cc1[C@@H](NC(C)=O)CC2` [colchicine], the “inhibition of lens epithelial cell proliferation and migration” value in the data set with lens epithelial cell is “potent inhibitor”. Moreover, the “toxic effect on the optic nerve” value in data set [1] is on record as “temporary toxic effect on the optic nerve”. In the case of `O=c1[nH]cc(F)c(=O)[nH]1` [5-fluorouracil], the “effect on posterior capsule opacification” value in data set [2] is “reduces posterior capsule opacification”. The ocular complications result in data set [3] is “corneal epithelial defects and other ocular complications”.
